The source of these data is US6686393B1, “Pharmaceutical compositions having antiviral activity against human cytomegalovirus” (Murdock International Corporation, priority 1990, dated 2004).

Where “and” joins values, the source holds several entries; their conditions need not be identical. Identical values can stand only once. Entries after “also recorded” stand apart in the source; their conditions may differ. Like-named read-outs stand apart in the source and are kept apart here. Where only a bound is given, the exact number is not on record here.

Series [1] deals with human cytomegalovirus (HCMV), strain AD-169. Nature of the series: Antiviral test (plaque reduction) versus HCMV, strain AD-169, in MRC-5 cells. Format: cell-based. To be noted: for Activity against HCMV: statement in words on the plaque reduction results.
Where [2] appears, read: 10 μg/ml, Example 2, ethanol stock (protohypericin in DMSO), cells exposed 6 or more days.
Setting [3] is: Example 2, cells exposed 6 or more days.
Setting [4] is: Table 9 summary, two values = two experiments.
Where [5] appears, read: Human betaherpesvirus 5, AD169, MRC5, 0.01 μg/ml, Example 2, read-out: Percent Inhibition of Plaque Numbers (Compared to Virus Controls).
Where [6] appears, read: Human betaherpesvirus 5, AD169, MRC5, 0.032 μg/ml, Example 2, read-out: Percent Inhibition of Plaque Numbers (Compared to Virus Controls).
The mark [7] stands for this setting: Human betaherpesvirus 5, AD169, MRC5, 0.1 μg/ml, Example 2, read-out: Percent Inhibition of Plaque Numbers (Compared to Virus Controls).
Where [8] appears, read: Human betaherpesvirus 5, AD169, MRC5, 0.32 μg/ml, Example 2, read-out: Percent Inhibition of Plaque Numbers (Compared to Virus Controls).
Setting [9] is: Human betaherpesvirus 5, AD169, MRC5, 1.0 μg/ml, Example 2, read-out: Percent Inhibition of Plaque Numbers (Compared to Virus Controls).
The mark [10] stands for this setting: Human betaherpesvirus 5, AD169, MRC5, 3.2 μg/ml, Example 2, read-out: Percent Inhibition of Plaque Numbers (Compared to Virus Controls).
Setting [11] is: Human betaherpesvirus 5, AD169, MRC5, 10 μg/ml, Example 2, ethanol stock (protohypericin in DMSO), cells exposed 6 or more days, read-out: Percent Inhibition of Plaque Numbers (Compared to Virus Controls).
Where [12] appears, read: Human betaherpesvirus 5, AD169, MRC5, read-out: % Reduction.
Setting [13] is: Human betaherpesvirus 5, AD169, MRC5, read-out: Percent Inhibition of Plaque Numbers (Compared to Virus Controls).

Turning to `O=C1c2cccc(O)c2C(=O)c2c(O)cccc21` [1,8-Dihydroxyanthraquinone, 1,8-dihydroxyanthraquinone], the “Number of Plaques” value is recorded as 10 in series [1] (0.01 μg/ml, Example 6); 26 in series [1] (0.01 μg/ml, Example 7); 9 in series [1] (0.032 μg/ml, Example 6); 20 in series [1] (0.032 μg/ml, Example 7); 10 in series [1] (0.1 μg/ml, Example 6); 22 in series [1] (0.1 μg/ml, Example 7). The “Number of Plaques” value in series [1] (0.32 μg/ml, Example 6) is listed as 12; in series [1] (0.32 μg/ml, Example 7) it was 44; in series [1] (1.0 μg/ml, Example 6), 10; in series [1] (1.0 μg/ml, Example 7), 35; in series [1] (3.2 μg/ml, Example 6), 8; in series [1] (3.2 μg/ml, Example 7), 42. The “Number of Plaques” value stood at 12 in series [1] (10.0 μg/ml, Example 6) and 30 in series [1] (10.0 μg/ml, Example 7). Besides, the inhibition at 0.01 µg/mL in series [1] (Human betaherpesvirus 5, AD169, MRC5, 0.01 μg/ml, Example 6, read-out: % Reduction) is 0%; in series [1] (Human betaherpesvirus 5, AD169, MRC5, 0.01 μg/ml, Example 7, read-out: % Reduction), 0%. Also, the inhibition at 0.032 µg/mL in series [1] (Human betaherpesvirus 5, AD169, MRC5, 0.032 μg/ml, Example 6, read-out: % Reduction) stood at 0%; in series [1] (Human betaherpesvirus 5, AD169, MRC5, 0.032 μg/ml, Example 7, read-out: % Reduction), 37%. The inhibition at 0.1 µg/mL is 0% in series [1] (Human betaherpesvirus 5, AD169, MRC5, 0.1 μg/ml, Example 6, read-out: % Reduction) and 31% in series [1] (Human betaherpesvirus 5, AD169, MRC5, 0.1 μg/ml, Example 7, read-out: % Reduction). The inhibition at 0.32 µg/mL in series [1] (Human betaherpesvirus 5, AD169, MRC5, 0.32 μg/ml, Example 6, read-out: % Reduction) was determined as 0%; in series [1] (Human betaherpesvirus 5, AD169, MRC5, 0.32 μg/ml, Example 7, read-out: % Reduction), 0%. The inhibition at 1 µg/mL worked out at 0% in series [1] (Human betaherpesvirus 5, AD169, MRC5, 1.0 μg/ml, Example 6, read-out: % Reduction) and 0% in series [1] (Human betaherpesvirus 5, AD169, MRC5, 1.0 μg/ml, Example 7, read-out: % Reduction). The inhibition at 3.2 µg/mL was 0% in series [1] (Human betaherpesvirus 5, AD169, MRC5, 3.2 μg/ml, Example 6, read-out: % Reduction) and 0% in series [1] (Human betaherpesvirus 5, AD169, MRC5, 3.2 μg/ml, Example 7, read-out: % Reduction). Also, the inhibition at 10 µg/mL in series [1] (Human betaherpesvirus 5, AD169, MRC5, 10.0 μg/ml, Example 6, read-out: % Reduction) was 0%; in series [1] (Human betaherpesvirus 5, AD169, MRC5, 10.0 μg/ml, Example 7, read-out: % Reduction), 0%. The “Activity against HCMV” value is given as “Slight activity” in series [1] (listed as 1,8-dihydroxy anthraquinone) and “show activity; also recorded: activity but at lower levels” in series [1] (listed as 1,8-dihydroxyanthraquinone). The molecule also came in with a CD50 in the series on MRC-5 cells (human) of over 10 µg/mL.

On to `O=C(O)c1cc(O)c2c(c1)[C@H]([C@H]1c3cc(C(=O)O)cc(O)c3C(=O)c3c(O[C@@H]4O[C@H](CO)[C@@H](O)[C@H](O)[C@H]4O)cccc31)c1cccc(O[C@@H]3O[C@H](CO)[C@@H](O)[C@H](O)[C@H]3O)c1C2=O` [(+)Sennoside A, sennoside A], for which the “Percent Inhibition of Plaque Numbers (Compared to Virus Controls)” value (“Percent Inhibition of Plaque Numbers” for short) was 0% in series [1] (0.01 μg/ml, Example 2); 0% in series [1] (0.032 μg/ml, Example 2); 0% in series [1] (0.1 μg/ml, Example 2); 0% in series [1] (0.32 μg/ml, Example 2); 0% in series [1] (1.0 μg/ml, Example 2); 0% in series [1] (3.2 μg/ml, Example 2). Besides, the “Percent Inhibition of Plaque Numbers” value in series [1] (setting [2]) stood at 0%. In addition, the CD50 in the series on MRC-5 cells (setting [3]) and in the series on MRC-5 cells (setting [4]) was over 10 µg/mL each time.

Consider `O=C1c2cccc(O)c2C(=O)c2c(O)cc(CO)cc21` [Aloe-Emodin, aloe-emodin], for which the inhibition at 0.01 µg/mL in series [1] (setting [5]) is 0%. Besides, the inhibition at 0.032 µg/mL in series [1] (setting [6]) turned out to be 0%. In addition, in series [1] (setting [7]), the inhibition at 0.1 µg/mL is 0%. Also, the inhibition at 0.32 µg/mL in series [1] (setting [8]) turned out to be 0%. Also, in series [1] (setting [9]), the inhibition at 1 µg/mL is 0%. In addition, the inhibition at 3.2 µg/mL in series [1] (setting [10]) came out at 0%. The inhibition at 10 µg/mL in series [1] (setting [11]) worked out at 0%. The same molecule showed a CD50 in the series with MRC-5 cells (human) of over 10 µg/mL.

`O=C1c2c(O)cccc2C([C@@H]2O[C@H](CO)[C@@H](O)[C@H](O)[C@H]2O)c2cc(CO)cc(O)c21` (some centres unmarked) [Aloin, aloin]: the “Number of Plaques” value in series [1] is 24 and 26 and 20 and 16. Moreover, in series [1] (setting [12]), the inhibition at 0.01 µg/mL turned out to be 0%, the inhibition at 0.032 µg/mL was determined as 0%, the inhibition at 0.1 µg/mL amounted to 0% and the inhibition at 0.32 µg/mL was determined as 0%. Besides, in series [1] (setting [12]), the inhibition at 1 µg/mL is 0%, the inhibition at 3.2 µg/mL is 0% and the inhibition at 10 µg/mL turned out to be 0%. Also, the CD50 in the series on MRC-5 cells (human) is over 10 µg/mL.

On to `O=C1c2ccc(O)cc2C(=O)c2ccc(O)cc21` [Anthraflavic Acid, anthraflavic acid], for which, in series [1] (setting [13]), the inhibition at 0.01 µg/mL came to 0%, the inhibition at 0.032 µg/mL came to 0%, the inhibition at 0.1 µg/mL was 0% and the inhibition at 0.32 µg/mL worked out at 0%. In series [1] (setting [13]), the inhibition at 1 µg/mL amounted to 11% and the inhibition at 3.2 µg/mL was determined as 15%. The same molecule returned a CD50 in the series with MRC-5 cells (human) of 3.4 µg/mL.

On to `O=C1c2ccccc2C(=O)c2ccccc21` [Anthraquinone, anthraquinone], for which the “Number of Plaques” value in series [1] (0.01 μg/ml, Example 5) came out at 36; in series [1] (0.032 μg/ml, Example 5), 27; in series [1] (0.1 μg/ml, Example 5) it was 30; in series [1] (0.32 μg/ml, Example 5) it was 32; in series [1] (1.0 μg/ml, Example 5), 34; in series [1] (3.2 μg/ml, Example 5), 36. Besides, the “Number of Plaques” value in series [1] (10.0 μg/ml, Example 5) is listed as 55. The inhibition at 0.01 µg/mL in series [1] (Human betaherpesvirus 5, AD169, MRC5, 0.01 μg/ml, Example 5, read-out: % Reduction) was 20%. In series [1] (Human betaherpesvirus 5, AD169, MRC5, 0.032 μg/ml, Example 5, read-out: % Reduction), the inhibition at 0.032 µg/mL was found to be 27%. Moreover, the inhibition at 0.1 µg/mL in series [1] (Human betaherpesvirus 5, AD169, MRC5, 0.1 μg/ml, Example 5, read-out: % Reduction) came out at 33%. Moreover, the inhibition at 0.32 µg/mL in series [1] (Human betaherpesvirus 5, AD169, MRC5, 0.32 μg/ml, Example 5, read-out: % Reduction) turned out to be 29%. Besides, the inhibition at 1 µg/mL in series [1] (Human betaherpesvirus 5, AD169, MRC5, 1.0 μg/ml, Example 5, read-out: % Reduction) was determined as 24%. For the same molecule, in series [1] (Human betaherpesvirus 5, AD169, MRC5, 3.2 μg/ml, Example 5, read-out: % Reduction), the inhibition at 3.2 µg/mL was found to be 20%. Besides, the inhibition at 10 µg/mL in series [1] (Human betaherpesvirus 5, AD169, MRC5, 10.0 μg/ml, Example 5, read-out: % Reduction) came to 0%. In the series with MRC-5 cells (human), the CD50 is over 10 µg/mL.

Take `O=C1c2cccc(O)c2C(=O)c2cccc(O)c21` [Anthrarufin, anthrarufin]: in series [1] (setting [12]), the inhibition at 0.01 µg/mL worked out at 0%, the inhibition at 0.032 µg/mL is 0%, the inhibition at 0.1 µg/mL was determined as 0% and the inhibition at 0.32 µg/mL stood at 0%. Also, in series [1] (setting [12]), the inhibition at 1 µg/mL was determined as 0%, the inhibition at 3.2 µg/mL was found to be 0% and the inhibition at 10 µg/mL worked out at 0%. This molecule showed a CD50 in the series on MRC-5 cells (human) of over 10 µg/mL.

As to `Cc1cc(O)c2c(c1)C(=O)c1cccc(O)c1C2=O` [Chrysophanol, chrysophanol], in series [1] (setting [5]), the inhibition at 0.01 µg/mL was found to be 0%. Further, the inhibition at 0.032 µg/mL in series [1] (setting [6]) was 0%. Besides, in series [1] (setting [7]), the inhibition at 0.1 µg/mL turned out to be 0%. In addition, in series [1] (setting [8]), the inhibition at 0.32 µg/mL stood at 0%. Also, the inhibition at 1 µg/mL in series [1] (setting [9]) came to 0%. Also, the inhibition at 3.2 µg/mL in series [1] (setting [10]) stood at 0%. For the same molecule, the inhibition at 10 µg/mL in series [1] (setting [11]) worked out at 0%. Also, in the series on MRC-5 cells (human), the CD50 is over 10 µg/mL.

As for `Cc1cc(O)c2c(c1)C(C1c3cc(C)cc(O)c3C(=O)c3c(O)cc(O)cc31)c1cc(O)cc(O)c1C2=O` (centres unmarked) [Emodin Bianthrone (d,1), emodin bianthrone], the “Percent Inhibition of Plaque Numbers” value in series [1] (0.01 μg/ml, Example 2) is 0%; in series [1] (0.032 μg/ml, Example 2), 0%; in series [1] (0.1 μg/ml, Example 2), 0%; in series [1] (0.32 μg/ml, Example 2) it was 0%; in series [1] (1.0 μg/ml, Example 2), 33%; in series [1] (3.2 μg/ml, Example 2), “toxic”. Further, the “Percent Inhibition of Plaque Numbers” value in series [1] (setting [2]) is recorded as “toxic”. Further, the CD50 in the series on MRC-5 cells (setting [3]) and in the series on MRC-5 cells (setting [4]) was 1.2 µg/mL each time.
